Data set [1] is described as follows: Weight gain with relative humidity (hygroscopicity). The data set is classed as physicochemical.
A short description of data set [2]: Solid form stability of crystals stored at ambient conditions. The conditions noted are these: product likely form H2-1. The data set is classed as physicochemical. As to the method: 100 mg Saxagliptin mono HCl salt form H2-1 (dihydrate) (prepared employing a procedure similar to that described in Example 5) were added to 2 ml of dry ethanol (dried over molecular sieves). The resulting mixture was heated at 45° C. until all form H^2-1 compound was dissolved, at which time heating was discontinued. Crystallization was initiated when the temperature was cooled to 25° C.±2° C. (close to room temperature). Crystals of saxagliptin HCl salt Pattern P-5 were recovered, which crystals were maintained as a slurry in a sealed container at 25° C.±2° C.

With `N#C[C@@H]1C[C@@H]2C[C@@H]2N1C(=O)[C@@H](N)C12CC3CC(CC(O)(C3)C1)C2.O` [free base monohydrate (form H−1)], the hygroscopicity entry in data set [1] (from weight gain in the range 25-75% RH at 25° C.) is “non-hygroscopic”. The weight gain in data set [1] (range 25-75% RH at 25° C.) turned out to be 0.1%.
As to `Cl.N#C[C@@H]1C[C@@H]2C[C@@H]2N1C(=O)[C@@H](N)C12CC3CC(CC(O)(C3)C1)C2` [saxagliptin HCl salt Pattern P-5], the “conversion of crystal form on storage” value in data set [2] is “underwent significant conversion”.

The values above are taken from patent US8802715B2, “Crystal forms of saxagliptin and processes for preparing same” (AstraZeneca AB, priority 2007, dated 2014).
